Reference: patent US11382884B2, “Method for reducing lung infection” (priority 2017, dated 2022)
Like-named read-outs stand apart in the source and are kept apart here.

How the values were obtained:
[1] = system: Staphylococcus aureus MRSA; test: Antibiotics with buffered CaEDTA against MRSA; type: cell-based; details: FIG. 19 (vancomycin), FIG. 21 (ciprofloxacin)
Experimental: (§1) Checkerboard assays of other species were carried out using growth method 1, apart from the following variations. Burkholderia cepacia was incubated at 30° C., and other bacteria were incubated at 37° C. Streptococcus pyogenes and Streptococcus pneumoniae were grown in Todd Hewitt Broth, and Staphylococcus aureus was grown in Veal Infusion Broth.

[2] = system: P. aeruginosa WACC91 biofilms; test: Checkerboard, biofilm growth (crystal violet staining), tobramycin with CaEDTA or buffered CaEDTA; type: cell-based, Pseudomonas aeruginosa
Experimental: (§2) Growth method 1: Cells were grown in M9 medium supplemented with arginine and MgSO4, in polystyrene 96-well plates (Nunc) by seeding each well with […] of an overnight culture of P. aeruginosa strain WACC 91 and incubating at 37° C. for 24 hours.
(§3) Anaerobic cultures were incubated in a closed chamber with anaerobic sachets to remove oxygen.
(§4) Planktonic growth was monitored by OD reading or plate counting. Biofilms were quantified by staining with 40 μl of crystal violet stain (1% w/v in water) for 10 min at room temperature, washing twice with 250 μl of water, dissolving the stain in 250 μl of 50% ethanol and reading optical density at 595 nm.
(§5) Cells of P. aeruginosa WACC91 were grown according to method 1 and tested in a checkerboard assay against tobramycin and CaEDTA in varying concentrations.

P. aeruginosa biofilms = system: P. aeruginosa biofilms
Experimental: Biofilm disruption or killing was monitored by growing cells as described and removing planktonic cells by pipetting. The attached biofilm was washed carefully with sterile PBS three times, and fresh medium containing the treatment (tobramycin alone or together with CaNa2EDTA in solution, tris-buffered solution, or as dry powder particles) was added. Plates were incubated for a further 24 hours and metabolic activity was measured. Biofilms were washed as described above, then fresh medium containing 0.02% w/v resazurin was added. Plates were shaken briefly to mix, then incubated at 37° C. for 2 hours. Metabolic activity, as reflected by the conversion of resazurin to resafurin, was assessed by measuring the increase in fluorescence at an excitation wavelength of 530 nm with detection at 590 nm.

[3] = single dose of 75 mg CaEDTA; after 30 minutes; FIG. 28
Experimental: Vials were then centrifuged at 100 g for 5 min to sediment precipitated proteins and 754 μL of the methanol extract taken for derivatisation. […] Derivatised extract (1 μl) was injected into a Waters microflow HPLC equipped with a triple quad mass […] detector.

P. aeruginosa WACC91 = details: for interaction with tobramycin, planktonic growth (OD600 nm): checkerboard
Experimental: as §2, §3, §4, §5

[4] = 300 mg/day for two weeks (75 mg QID); FIG. 26
Experimental: Subjects were then discharged and treatment was continued twice a day for four weeks. Patients were monitored for a further four weeks, bringing the total study time to 10 weeks. At each study visit, lung function was measured by spirometry. Data was recorded as the best of three attempts, and results were expressed as % predicted.

[5] = system: P. aeruginosa clinical strain biofilms; test: Biofilms in hanging drops of CF mucus treated with nebulised tobramycin and/or aerosolised EDTA particles; type: cell-based, Pseudomonas aeruginosa; details: for biofilm viability (BacLight LIVE/DEAD, confocal microscopy): 5 min treatment, nebulised tobramycin 20 mg/ml and/or aerosolised EDTA particles 10 mg/ml, 16 hours incubation, FIG. 24A
Experimental: Biofilms were grown in a realistic in vitro model using suspended drops of cystic fibrosis mucus harvested from epithelial cell lines (Haley, C. L., Colmer-Hamood, J. A., and Hamood, A. N. (2012). Characterization of biofilm-like structures formed by Pseudomonas aeruginosa in a synthetic mucus medium. BMC Microbiol 12, 181.).
Drops of mucus (5 μl) were suspended from an inverted IBIDI cover slip and inoculated with 10^3 cfu, then incubated in a humidified environment at 35° C. for 72 hours to allow biofilm development. […] Controls were treated with a 50/50 solution of nebulised 0.9% saline/water. Following treatment, the drops were incubated for 16 hours, then stained with BacLight LIVE/DEAD (1 μl), and fixed in paraformaldehyde vapour for 30 min. Biofilms were visualised using confocal microscopy.

[6] = system: P. aeruginosa planktonic cells and biofilms; test: Microplate test of antibiotics of different classes with buffered CaEDTA; type: cell-based, Pseudomonas aeruginosa; details: growth method 2; FIGS. 7-12
Experimental: (§6) Growth method 2: Overnight cultures of the relevant strain of P. aeruginosa were grown in M63 medium supplemented with glucose (0.5% w/v), casamino acids (0.2% w/v) and MgSO4 (1 mM) at 35° C. with shaking. 96-well microplates containing M63 with serial dilutions of antibiotics and adjuvants as indicated were inoculated to OD600 nm 0.01 in a final volume of 200 μl. Plates were incubated at 35° C. overnight without shaking.
as §4
Cells were grown according to method 2 and challenged with buffered CaEDTA and a series of clinically relevant antibiotics of different classes with different modes of action.

P. aeruginosa ATCC27853 = test: Time-kill assay, ceftazidime with or without buffered CaEDTA; type: cell-based, Pseudomonas aeruginosa; details: ceftazidime 128 ug/ml, buffered CaEDTA 20 mM
Experimental: This is likely a result of increased antibiotic killing. Challenge microorganisms were grown on solid agar and suspended in 0.9% Sodium Chloride (SCl) to create a challenge suspension. A 0.1 mL aliquot of the challenge suspension containing approximately 1×10^8 colony forming units was then inoculated into 10 mL Cation-Adjusted Mueller Hinton Broth (CaMHB) with the appropriate antibiotic or antibiotic with chelator, as indicated, and mixed thoroughly. The challenge suspension/antibiotic mixtures were then incubated at 35 degrees C. for the exposure time. At each timepoint, 0.1 mL aliquots were removed and placed into 9.9 mL of Butterfield's Phosphate Buffer with product neutralizers, mixed thoroughly by vortexing, and plated using the appropriate agar. Recovered colonies were enumerated using a hand-tally counter.

[7] = system: Burkholderia cepacia planktonic cells; test: Checkerboard, antibiotics with buffered CaEDTA; type: cell-based; details: FIGS. 15 and 16
Experimental: as §1

S. aureus MSSA = test: Ciprofloxacin with buffered CaEDTA against MSSA; type: cell-based, Staphylococcus aureus; details: FIG. 20
Experimental: as §1

P. aeruginosa = details: ten CF children, nebulised sodium EDTA and oral tetracycline for three months; cited from earlier work
[8] = system: Klebsiella pneumoniae planktonic cells and biofilms; test: Checkerboard, colistin with buffered CaEDTA; type: cell-based
Experimental: as §1

[9] = system: P. aeruginosa clinical strain; test: MIC of tobramycin for the clinical strain; type: cell-based; details: Pseudomonas aeruginosa; P. aeruginosa clinical strain used in the CF mucus model
[10] = system: P. aeruginosa WACC91 planktonic cells; test: Checkerboard, tobramycin with other chelators; type: cell-based, Pseudomonas aeruginosa; details: for effect on the MIC of tobramycin: concentration-dependent, FIGS. 13 and 14
Experimental: as §6
Cells were grown according to method 2 and challenged with different concentrations of tobramycin.

[11] = 4 ug/ml tobramycin, 6.25 mM CaEDTA, aerobic and anaerobic, FIG. 5

Compound: CN[C@H](CC(C)C)C(=O)N[C@H]1C(=O)N[C@@H](CC(N)=O)C(=O)N[C@H]2C(=O)N[C@H]3C(=O)N[C@H](C(=O)N[C@H](C(=O)O)c4cc(O)cc(O)c4-c4cc3ccc4O)[C@H](O)c3ccc(c(Cl)c3)Oc3cc2cc(c3O[C@@H]2O[C@H](CO)[C@@H](O)[C@H](O)[C@H]2O[C@H]2C[C@](C)(N)[C@H](O)[C@H](C)O2)Oc2ccc(cc2Cl)[C@H]1O [vancomycin]
- MIC in the presence of buffered CaEDTA [1]: reduced MIC values

Compound: O=C([O-])CN(CCN(CC(=O)[O-])CC(=O)[O-])CC(=O)[O-].[Ca+2].[Na+].[Na+] [CaEDTA]
- biofilm growth when CaEDTA is added to tobramycin [2, 11]: reduced
- interaction with tobramycin, biofilm growth (CV staining) ([2]; aerobic conditions, checkerboard, FIG. 2): synergistic effect
- effect on the concentration of tobramycin required to block biofilm formation ([2]; aerobic, FIG. 2): lowers the concentration of tobramycin required
- interaction with tobramycin, biofilms ([2]; anaerobic conditions, checkerboard, FIG. 4): synergistic effect
- effect on efficacy of tobramycin against existing biofilms (metabolic activity) (P. aeruginosa biofilms; FIG. 6): increases the efficacy
- dependence of the synergistic effect on mode of delivery (P. aeruginosa biofilms; solution or dry powder, FIG. 6B): does not depend on the mode of delivery
- interaction with tobramycin, metabolism of biofilms (P. aeruginosa biofilms; submicron particles of CaEDTA, aerosolised, 96-well plates, FIG. 6): synergistic effect
- effect on killing of biofilms by tobramycin (P. aeruginosa biofilms; tobramycin concentrations<1 mg/ml, FIG. 6A): substantially enhances killing
- EDTA inside mucus plugs [3]: up to 1.34 mM
- planktonic growth when CaEDTA is added to tobramycin (P. aeruginosa WACC91; [11]): reduced
- interaction with tobramycin, planktonic growth (OD600 nm) (P. aeruginosa WACC91; aerobic conditions, FIG. 1): synergistic effect
- interaction with tobramycin, planktonic growth (OD600 nm) (P. aeruginosa WACC91; anaerobic conditions, FIG. 3): synergistic effect
- effect on the MIC of tobramycin (P. aeruginosa WACC91; planktonic cells, aerobic conditions, FIG. 1): lowers the MIC
- lowest effective concentration in vitro (P. aeruginosa WACC91; with tobramycin, FIGS. 1B and 2B): 0.078 mM
- improvement in lung function (FEV1), average [4]: 16 % points
- biofilm viability (BacLight LIVE/DEAD, confocal microscopy) [5]: some degree of killing
- interaction with tobramycin on biofilms in CF mucus ([5]; submicron particles of CaEDTA, tobramycin 325 μg/ml final in droplets, FIG. 24): act synergistically

Compound: COc1cccc(OC)c1C(=O)N[C@@H]1C(=O)N2[C@@H]1SC(C)(C)[C@@H]2C(=O)O [methicillin]
- sensitivity of P. aeruginosa to the antibiotic in the presence of buffered CaEDTA [6]: increases the sensitivity

Compound: CC(C)(O/N=C(\C(=O)N[C@@H]1C(=O)N2C(C(=O)[O-])=C(C[n+]3ccccc3)CS[C@H]12)c1csc(N)n1)C(=O)O [ceftazidime]
- rate of killing in the presence of buffered CaEDTA (P. aeruginosa ATCC27853): much more rapid

Compound: O=C(O)c1cn(C2CC2)c2cc(N3CCNCC3)c(F)cc2c1=O [ciprofloxacin]
- MIC of B. cepacia in the presence of buffered CaEDTA [7]: lowered
- MIC in the presence of buffered CaEDTA [1]: reduced MIC values
- MIC in the presence of buffered CaEDTA (S. aureus MSSA): reduced MIC values

Compound: sodium EDTA
- lung function or infection status (P. aeruginosa): no change in lung function or infection status

Compound: C[C@H]1[C@H](NC(=O)/C(=N\OC(C)(C)C(=O)O)c2csc(N)n2)C(=O)N1S(=O)(=O)O [aztreonam]
- sensitivity of P. aeruginosa to the antibiotic in the presence of buffered CaEDTA [6]: increases the sensitivity

Compound: colistin
- sensitivity of planktonic cells in the presence of buffered CaEDTA ([8]; FIG. 17A): sensitized
- sensitivity of biofilms in the presence of buffered CaEDTA ([8]; FIG. 17B): sensitized
- sensitivity of P. aeruginosa to the antibiotic in the presence of buffered CaEDTA [6]: increases the sensitivity

Compound: CC[C@H]1OC(=O)[C@H](C)[C@@H](O[C@H]2C[C@@](C)(OC)[C@@H](O)[C@H](C)O2)[C@H](C)[C@@H](O[C@@H]2O[C@H](C)C[C@H](N(C)C)[C@H]2O)[C@](C)(O)C[C@@H](C)C(=O)[C@H](C)[C@@H](O)[C@]1(C)O [erythromycin]
- sensitivity of P. aeruginosa to the antibiotic in the presence of buffered CaEDTA [6]: increases the sensitivity

Compound: NC[C@H]1O[C@H](O[C@H]2[C@H](O)[C@@H](O[C@H]3O[C@H](CO)[C@@H](O)[C@H](N)[C@H]3O)[C@H](N)C[C@@H]2N)[C@H](N)C[C@@H]1O [tobramycin]
- MIC of B. cepacia in the presence of buffered CaEDTA [7]: lowered
- biofilm formation at sub-MIC concentration ([2]; tobramycin alone, 4 ug/ml, FIG. 5): increase biofilm formation
- biofilm viability (BacLight LIVE/DEAD, confocal microscopy) [5]: little effect on viability
- MIC [9]: > 256 µg/mL

Compound: CC1(C)S[C@@H]2[C@H](NC(=O)C(C(=O)O)c3ccccc3)C(=O)N2[C@H]1C(=O)O (stereo partly shown) [carbenicillin]
- sensitivity of P. aeruginosa to the antibiotic in the presence of buffered CaEDTA [6]: increases the sensitivity

Compound: O=C(O)CN(CCN(CC(=O)O)CC(=O)O)CCN(CC(=O)O)CC(=O)O [DTPA, diethylenetriaminepentaacetic acid]
- interaction with tobramycin ([10]; FIG. 14): synergy
- effect on the MIC of tobramycin [10]: reduce the MIC

Compound: O=C(O)CN(CCOCCOCCN(CC(=O)O)CC(=O)O)CC(=O)O [EGTA, ethylene glycol tetraacetic acid]
- effect on the MIC of tobramycin [10]: reduce the MIC
